Measurements as given in article PMC5607274, “An iterative compound screening contest method for identifying target protein inhibitors using the tyrosine-protein kinase Yes” (Scientific Reports, 2017).

Each molecule was assayed against T1, human recombinant Yes [a.a. 2–543 (end)] (Homo sapiens, UniProt P07947) (assay: ADP-Glo kinase assay, inhibition rates of Yes phosphorylation activity (first and second screening)). Conditions: first screening; mean of n = 4 wells; 10 μmol L−1 compound.
T1 construct: human recombinant Yes [a.a; 2–543 (end)]; purchased BPS Bioscience 40488
T1 sequence (P07947 2-543): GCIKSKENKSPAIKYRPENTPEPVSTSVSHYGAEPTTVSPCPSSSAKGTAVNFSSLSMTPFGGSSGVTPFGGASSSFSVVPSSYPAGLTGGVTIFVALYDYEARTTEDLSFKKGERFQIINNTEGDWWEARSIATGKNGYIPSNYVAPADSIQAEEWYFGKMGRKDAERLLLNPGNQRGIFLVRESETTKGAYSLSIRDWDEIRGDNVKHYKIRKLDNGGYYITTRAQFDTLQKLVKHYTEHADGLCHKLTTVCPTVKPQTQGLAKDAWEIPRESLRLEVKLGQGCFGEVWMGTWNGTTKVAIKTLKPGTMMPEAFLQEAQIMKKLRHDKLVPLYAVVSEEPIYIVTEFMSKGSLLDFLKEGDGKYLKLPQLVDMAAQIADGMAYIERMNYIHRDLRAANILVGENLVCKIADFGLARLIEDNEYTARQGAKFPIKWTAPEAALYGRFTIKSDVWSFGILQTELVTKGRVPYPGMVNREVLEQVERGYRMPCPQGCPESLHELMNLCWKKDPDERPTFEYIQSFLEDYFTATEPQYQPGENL
Type: biochemical
In short: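 ADP-Glo luminescence measured inhibition of human recombinant Yes (a.a. 2–543) phosphorylation activity. In the first screen, each compound ran in 4 wells and inhibition rates were averaged. The second screen retested hits as compounds dissolved from fresh powder.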
`O=C(CCCSc1ccccc1)Nc1n[nH]c(-c2ccc(F)cc2)n1` [Compound Z108549090] was tested, and the “First screening IR (inhibition rate)” value was 6%.
For `O=C(Nc1n[nH]c(-c2ccc(F)cc2)n1)c1ccccc1F` [Compound Z108549754], the “First screening IR (inhibition rate)” value was -11%.
For `FC(F)(F)c1nc(N2CCOCC2)c2cnn(Cc3ccccc3)c2n1` [Compound Z108567148], the “First screening IR (inhibition rate)” value was -2%.
With `O=C(NCC1CCCCC1)c1cc(-c2ccccc2)nc2c1cnn2Cc1ccncc1` [Compound Z108748406] the “First screening IR (inhibition rate)” value was 8%.
`O=C(Nc1nc2c(s1)CN(Cc1ccccc1)CC2)c1csc(-c2ccsc2)n1` [Compound Z108907460] was tested, and the “First screening IR (inhibition rate)” value was 8%.
With `CON(C)C(=O)c1cc(-c2ccccc2)nc2c1cnn2Cc1ccncc1` [Compound Z109300154] the “First screening IR (inhibition rate)” value was -8%.
`O=C(CN1CCN(C(=O)c2cc(-c3ccccc3)nc3c2cnn3Cc2ccncc2)CC1)NC1CC1` [Compound Z109522106] was tested, and the “First screening IR (inhibition rate)” value was 12%.
In the case of `COc1ccc(Cl)cc1CN(C)C(=O)c1cc(C(C)C)nc2c1cnn2C(C)C` [Compound Z110143980], the “First screening IR (inhibition rate)” value is reported as -14%.
In the case of `COc1ccccc1C(=O)Nc1ccc(Nc2nc(-c3ccccc3)c3cc(C)ccc3n2)cc1` [Compound Z111781008], the “First screening IR (inhibition rate)” value is reported as 8%.
For `Cc1cc(SC(C)C(=O)Nc2ccc3[nH]c(=O)[nH]c3c2)nc2ccccc12` (stereo not shown) [Compound Z112518822], the “First screening IR (inhibition rate)” value was -20%.
`Cc1sc2nc(CN3CCC(C)CC3)n(CC(=O)Nc3ccc(N4CCCC4)cc3)c(=O)c2c1C` [Compound Z112958446] was tested, and the “First screening IR (inhibition rate)” value was -4%.
For `CC(Sc1ccc2c(c1)CCC2)C(=O)Nc1sc2c(c1C(N)=O)CCC2` (stereo not shown) [Compound Z113592752], the “First screening IR (inhibition rate)” value was 1%.
In the case of `Cc1cccc(-n2c(=O)c3ccccc3n3c(SCC(=O)NC(C)CCCC(C)C)nnc23)c1C` (stereo not shown) [Compound Z113967060], the “First screening IR (inhibition rate)” value is reported as 15%.
In the case of `Cc1noc(C)c1COC(=O)CCc1nc(-c2cccs2)no1` [Compound Z114088706], the “First screening IR (inhibition rate)” value is reported as 9%.
In the case of `Cc1cc(-c2ccccc2)nc(SC(C)C(=O)Nc2sc3c(c2C(N)=O)CCC3)n1` (stereo not shown) [Compound Z114120486], the “First screening IR (inhibition rate)” value is reported as -3%.
In the case of `COc1cc(/C=C/C(=O)c2ccc3c(c2)NC(=O)CO3)ccc1O` [Compound Z114950222], the “First screening IR (inhibition rate)” value is reported as 1%.
In the case of `CCCN(CCC)c1ccc(/C=C/C(=O)c2ccc3c(c2)NC(=O)CO3)cc1` [Compound Z114950486], the “First screening IR (inhibition rate)” value is reported as 26%.
With `Cc1nc(-c2ccsc2)sc1C(=O)Nc1ccc(Cl)cc1F` [Compound Z115004236] the “First screening IR (inhibition rate)” value was 6%.
With `CN(Cc1cnn(-c2ccccc2)c1)C(=O)c1ccc(Cl)c(S(=O)(=O)N2CCCCCC2)c1` [Compound Z115152726] the “First screening IR (inhibition rate)” value was 4%.
In the case of `Cc1noc(C)c1S(=O)(=O)N1CCN(C(=O)CCc2c(C)[nH]c(=O)c(C#N)c2C)CC1` [Compound Z115241120], the “First screening IR (inhibition rate)” value is reported as 12%.
`O=C(NCCCN1CCCC1=O)c1cc(-c2ccccc2)nc2c1cnn2Cc1cccc(F)c1` [Compound Z116386688] was tested, and the “First screening IR (inhibition rate)” value was 3%.
For `NC(=O)c1cc(-c2ccccc2)nc2c1cnn2Cc1ccc(Cl)cc1` [Compound Z116821638], the “First screening IR (inhibition rate)” value was 1%.
For `CN(C)C(CNC(=O)c1cc(-c2ccccc2)nc2c1cnn2Cc1ccncc1)c1ccccc1` (stereo not shown) [Compound Z116834630], the “First screening IR (inhibition rate)” value was -16%.
With `O=C(c1cc(-c2ccccc2)nc2c1cnn2Cc1cccc(F)c1)N1CCC1` [Compound Z117073454] the “First screening IR (inhibition rate)” value was 5%.
For `Cc1cc(=O)c(C(=O)N2CCC(C(=O)N3CCCCCC3)CC2)nn1-c1ccccc1F` [Compound Z117548264], the “First screening IR (inhibition rate)” value was 2%.
With `CCN(CC)Cc1ccccc1CNC(=O)c1c(C)nn(-c2ccc(F)cc2)c1C` [Compound Z117807680] the “First screening IR (inhibition rate)” value was 9%.
With `Cc1ccc(Nc2ccnc(Nc3ccc(C)cc3)n2)cc1` [Compound Z118512882] the “First screening IR (inhibition rate)” value was -5%.
With `O=C(NC1CCS(=O)(=O)C1)c1nc(Cl)c(Cl)c(Cl)c1Cl` (stereo not shown) [Compound Z118688092] the “First screening IR (inhibition rate)” value was -7%.
